# Entries after “also recorded” stand apart in the source; their conditions may differ. Where two headings read alike, the source gives them in different places.
# Legend:
# hind paw formalin test = assay: Hind paw formalin test (2.5% formaldehyde), Example 2; assay type: in vivo, mice; details: for late phase, C-fiber mediated responses (paw licking): late/tonic phase, last 50 minutes
# formalin-induced pain = assay: Formalin test (5% formalin, intraplantar), Example 6; assay type: in vivo, CD-1 (ICR:Crl) mice; details: 95% confidence interval in parentheses; for ED50: Mus musculus
# rotarod performance = details: for ataxia on the rotarod test (in words): 60 mg/kg, 20-80 min after injection; for ED50 for maximal ataxia: 60 min following drug administration, interval in parentheses
# thermal thresholds = assay: Radiant heat paw-withdrawal test (acute nociception); assay type: in vivo, CD-1 (ICR:Crl) mice; details: high dose; 20 min post-injection
# Experimental: All behavioral experiments were performed on naive, adult (6-12 weeks of age) CD-1 (ICR:Crl) mice of both sexes that were bred in-house from breeders obtained from Charles River (Boucherville, QC). All mice were housed with their same-sex littermates (two to four animals per cage) in standard shoebox cages, maintained in a temperature-controlled (20±1° C.) environment (14/10 h light/dark cycle), and fed (Harlan Teklad 8604) and watered ad libitum. Mice were placed on glass floor within small Plexiglas cubicles as described above, and a focused high-intensity projector lamp beam was directed from below onto the mid-plantar surface of the hind paw (Hargreaves et al., 1988). The commercial device (IITC Model 336) was set to 20% active intensity. Latency to withdraw from the stimulus was measured to the nearest 0.1 s. Baseline measurements consisted of testing both hind paws twice on three separate occasions separated by at least 30 min. Following drug administration both hind paws were only tested once at the indicated time point.
# mechanical thresholds = assay: Von Frey test (acute nociception); assay type: in vivo, CD-1 (ICR:Crl) mice; details: 10, 30, 60 mg/kg
# Experimental: (§1) All behavioral experiments were performed on naive, adult (6-12 weeks of age) CD-1 (ICR:Crl) mice of both sexes that were bred in-house from breeders obtained from Charles River (Boucherville, QC). All mice were housed with their same-sex littermates (two to four animals per cage) in standard shoebox cages, maintained in a temperature-controlled (20±1° C.) environment (14/10 h light/dark cycle), and fed (Harlan Teklad 8604) and watered ad libitum. The up-down method of Dixon (1965) was used. Mice were placed on a perforated metal floor (with 5-mm diameter holes placed 7 mm apart) within small Plexiglas cubicles (9×5×5 cm high), and a set of eight calibrated von Frey fibers (Stoelting Touch Test Sensory Evaluator Kit #2 to #9; ranging from ≈0.015 g to ≈1.3 g of force) were applied to the plantar surface of the hind paw until the fibers bowed and then held for 3 s. The threshold force required to elicit withdrawal of the paw (median 50% withdrawal) was determined twice on each hind paw (and averaged) for all baseline measurements (except for the spared nerve injury experiments), with sequential measurements separated by at least 20 min. Following drug administration, one measurement per hind paw was taken at the indicated time point.
# [1] = system: λ-carrageenan thermal and mechanical allodynia; assay: Carrageenan hyperalgesia (radiant heat and von Frey); assay type: in vivo, CD-1 (ICR:Crl) mice
# Experimental: as §1, with “point. Mice were placed on glass floor within small Plexiglas cubicles as described above, and a focused high-intensity projector lamp beam was directed from below onto the mid-plantar surface of the hind paw (Hargreaves et al., 1988). The commercial device (IITC Model 336) was set to 20% active intensity. Latency to withdraw from the stimulus was measured to the nearest 0.1 s. Baseline measurements consisted of testing both hind paws twice on three separate occasions separated by at least 30 min. Following drug administration both hind paws were only tested once at the indicated time point. λ-Carrageenan (2%; 20 mg/ml; Sigma) was suspended by sonication in saline, and injected subcutaneously in a volume of 20 μl into the left plantar hindpaw using a 100 μL1 microsyringe with a 30-gauge needle. Mice were tested for thermal and mechanical sensitivity of both hind paws using the radiant heat paw withdrawal and von Frey tests before and 3 h post carrageenan injection. All drugs were injected immediately following the test for carrageenan hyperalgesia at the 3 h time point, and post-drug measurements were taken at 20, 40 and 60 min.” for “point.”
# [2] = system: mechanical allodynia evoked by spared nerve injury; assay: Spared nerve injury, von Frey test; assay type: in vivo, CD-1 (ICR:Crl) mice; details: 60 mg/kg; 7 days postoperatively
# Experimental: as §1, with “point. […]” for “point.”
# in vivo = details: mouse
# ADRB2 = biological target: T1, ADRB2 (Homo sapiens, UniProt P07550); assay: GloSensor cAMP-sensitive luciferase reporter assay, HEK-293 cells transfected with ADRB2; assay type: cell-based
# T1 construct: expressed in transfected cells; host or cells: HEK-293 co-expressing GloSensor-22F
# ADRB3 = biological target: T2, ADRB3 (Homo sapiens, UniProt P13945); assay type: cell-based; details: cells transfected with ADRB3
# T2 construct: expressed in transfected cells; host or cells: HEK-293 co-expressing GloSensor-22F
# T2 sequence (P13945 whole entry, species assumed): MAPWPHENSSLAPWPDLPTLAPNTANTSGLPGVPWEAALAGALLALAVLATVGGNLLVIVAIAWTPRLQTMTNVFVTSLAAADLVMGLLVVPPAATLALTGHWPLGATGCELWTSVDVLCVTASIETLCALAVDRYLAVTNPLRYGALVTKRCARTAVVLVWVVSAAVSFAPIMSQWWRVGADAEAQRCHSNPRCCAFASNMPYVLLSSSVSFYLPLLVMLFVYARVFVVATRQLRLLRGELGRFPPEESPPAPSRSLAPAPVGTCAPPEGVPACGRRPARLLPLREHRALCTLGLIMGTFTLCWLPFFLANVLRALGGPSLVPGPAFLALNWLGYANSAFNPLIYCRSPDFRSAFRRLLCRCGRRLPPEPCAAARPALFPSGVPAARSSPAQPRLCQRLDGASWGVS
# [3] = system: cells transfected with only Sport6 vector without inserts; assay: GloSensor cAMP assay, cells transfected with only Sport6 vector without inserts; assay type: cell-based
# ADRB1 = ADRB1 (Homo sapiens, UniProt P08588); details: cells transfected with ADRB1
# Sequence of ADRB1 (P08588 whole entry, species assumed): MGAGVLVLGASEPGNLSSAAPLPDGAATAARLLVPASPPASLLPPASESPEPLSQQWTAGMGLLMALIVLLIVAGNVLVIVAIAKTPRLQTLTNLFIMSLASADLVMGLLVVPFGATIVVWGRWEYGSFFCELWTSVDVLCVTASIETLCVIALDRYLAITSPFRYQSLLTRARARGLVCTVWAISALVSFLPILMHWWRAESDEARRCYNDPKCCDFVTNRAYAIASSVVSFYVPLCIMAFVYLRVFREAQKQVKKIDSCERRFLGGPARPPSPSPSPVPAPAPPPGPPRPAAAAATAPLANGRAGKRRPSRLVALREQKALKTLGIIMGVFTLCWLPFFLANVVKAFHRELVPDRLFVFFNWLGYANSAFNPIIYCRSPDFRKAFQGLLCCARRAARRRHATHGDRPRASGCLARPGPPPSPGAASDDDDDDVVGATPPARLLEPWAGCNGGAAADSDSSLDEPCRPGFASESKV
# [4] = 0-10 min post-injection of formalin
# [5] = 10-60 min post-injection of formalin
# [6] = S-ALG 517 60, 90 mg/kg, R-ALG 517 60, 90, 120 mg/kg, propranolol 10, 30, 60 mg/kg
# [7] = 60 mg/kg, up to 60 min post-injection
molecule,measurement,setting,value
"Cc1ccc(Cl)c(OC[C@@H](O)CNC(C)(C)C)c1 [S-ALG 517, S-tert-butyl[3-(2-chloro-5-methylphenoxy)-2-hydroxypropyl]amine]",responses to the hind paw formalin test,hind paw formalin test; 3 mg/kg,without effect
same,responses to the hind paw formalin test,hind paw formalin test; 10 mg/kg,without effect
same,"half-maximal analgesic dose (ED50), Early Phase",formalin-induced pain; [4],not calculable
same,"half-maximal analgesic dose (ED50), Late Phase",formalin-induced pain; [5],not calculable
same,ataxia on the rotarod test (in words),rotarod performance,only slight and possibly not even significant ataxia
same,ED50 for maximal ataxia,rotarod performance,74 mg/kg
same,ataxia / sedation on rotarod over the doses tested (in words),rotarod performance; [6],produce sedation at much lower doses
CC(C)NCC(O)COc1cccc2ccccc12 (centres unmarked) [propranolol],"late phase, C-fiber mediated responses (paw licking)",hind paw formalin test; 10 mg/kg,reduced
same,"half-maximal analgesic dose (ED50), Early Phase","formalin-induced pain; 0-10 min post-injection of formalin, listed as racemic propranolol",33 mg/kg
same,"half-maximal analgesic dose (ED50), Late Phase","formalin-induced pain; 10-60 min post-injection of formalin, listed as racemic propranolol",21.3 mg/kg
same,ataxia on the rotarod test (in words),rotarod performance,fall off the rotarod very rapidly
same,ED50 for maximal ataxia,rotarod performance,4.76 mg/kg
same,ataxia / sedation on rotarod over the doses tested (in words),rotarod performance; [6],produce sedation at much lower doses
"Cc1ccc(Cl)c(OC[C@H](O)CNC(C)(C)C)c1 [R-ALG 517, R-tert-butyl[3-(2-chloro-5-methylphenoxy)-2-hydroxypropyl]amine]","late phase, C-fiber mediated responses (paw licking)",hind paw formalin test; 10 mg/kg,reduced
same,"early, A-delta mediated phase responses (paw licking)","hind paw formalin test; early/acute phase, first 5 min",not altered
same,ED50,"formalin-induced pain; 0-10 min post-injection of formalin, read-out: half-maximal analgesic dose (ED50), Early Phase",46 mg/kg
same,ED50,"formalin-induced pain; 10-60 min post-injection of formalin, read-out: half-maximal analgesic dose (ED50), Late Phase",26.6 mg/kg
same,thermal thresholds on the radiant heat test,thermal thresholds,increased thermal thresholds
same,mechanical thresholds on the von Frey test,mechanical thresholds,no effect
same,reversal of thermal hyperalgesia,[1]; 10 mg/kg,transient reversal
same,reversal of mechanical hyperalgesia,[1]; 30 mg/kg,transient reversal
same,reversal of thermal hyperalgesia,[1]; 30 mg/kg,transient reversal
same,reversal of mechanical hyperalgesia,[1]; [7],complete and sustained
same,reversal of thermal hyperalgesia,[1]; [7],complete and sustained
same,reversal of mechanical allodynia evoked by spared nerve injury,[2],reversed
same,ataxia / sedation on rotarod over the doses tested (in words),"rotarod performance; mouse, in vivo",does not produce significant ataxia
same,ED50 at 60 min,in vivo,166 mg/kg
CC(C)NC[C@@H](O)COc1cccc2ccccc12 [R-propranolol],"half-maximal analgesic dose (ED50), Early Phase",formalin-induced pain; [4],not calculable
same,"half-maximal analgesic dose (ED50), Late Phase",formalin-induced pain; [5],not calculable
dynorphin A,agonist stimulation of cAMP production,ADRB2,showed agonistic properties
CN1CC[C@]23c4c5ccc(O)c4O[C@H]2[C@@H](O)C=C[C@H]3[C@H]1C5 [morphine],ADRB2 agonist potency in comparison with other agonists (in words),ADRB2,most potent ADRB2 agonist
same,agonist potency at ADRB2 as compared to ADRB1 and ADRB3,ADRB2,500-1000 times
same,agonist stimulation of cAMP production,ADRB2,stimulated cAMP production; also recorded: dose-dependent increases
same,intrinsic activity at ADRB2 as compared to ADRB1 and ADRB3,ADRB2,about 10 times
same,intracellular cAMP accumulation,ADRB3,dose-dependent increases
same,cAMP response,[3],did not evoke responses
same,intracellular cAMP accumulation,ADRB1,dose-dependent increases
CC(C)NCC(O)COc1cccc2ccccc12 (centres unmarked) [S-Propranolol],"half-maximal analgesic dose (ED50), Early Phase",formalin-induced pain; [4],35 mg/kg
same,"half-maximal analgesic dose (ED50), Late Phase",formalin-induced pain; [5],25.46 mg/kg
"Cc1ccc(OCC(O)C(C)NC(C)C)c2c1CCC2 (centres unmarked) [ICI118,551, 3-(isopropylamino)-1-[(7-methyl-4-indanyl)oxy]butan-2-ol]",blockade of morphine stimulation of cAMP,ADRB3; antagonist 300 nM,no blockade
same,blockade of morphine stimulation of cAMP,ADRB1; antagonist 300 nM,partial blockade
